In ChEMBL document CHEMBL1201862, “PubChem BioAssay data set” (2004):
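Compound exposure: 48 hours, 5 concentrations, 96-well plates. GI50 marks 50% less growth.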 The source made the active and inactive calls. No stated cut-off is given here; in the data, active = GI50 up to about 1.1 µM and inactive = higher.

Tests used:
Assay in all cases: NCI-60 cell line screen, 48 h
786-0 = test system: 786-0
CCRF-CEM = test system: CCRF-CEM
HCC 2998 = test system: HCC 2998
Hs-578T = test system: Hs-578T
IGROV-1 = test system: IGROV-1
LOX IMVI = test system: LOX IMVI
MCF7 = test system: MCF7
MDA-MB-231 = test system: MDA-MB-231
NCI/ADR-RES = test system: NCI/ADR-RES
OVCAR-5 = test system: OVCAR-5
SF-268 = test system: SF-268
SF-539 = test system: SF-539
SK-MEL-5 = test system: SK-MEL-5
SK-OV-3 = test system: SK-OV-3
SNB-19 = test system: SNB-19
SR = test system: SR
TK-10 = test system: TK-10
UACC-257 = test system: UACC-257
UO-31 = test system: UO-31
Malme-3M = test system: Malme-3M

Compound | GI50 (786-0) | GI50 (CCRF-CEM) | GI50 (HCC 2998) | GI50 (Hs-578T) | GI50 (IGROV-1) | GI50 (LOX IMVI) | GI50 (MCF7) | GI50 (MDA-MB-231) | GI50 (NCI/ADR-RES) | GI50 (OVCAR-5) | GI50 (SF-268) | GI50 (SF-539) | GI50 (SK-MEL-5) | GI50 (SK-OV-3) | GI50 (SNB-19) | GI50 (SR) | GI50 (TK-10) | GI50 (UACC-257) | GI50 (UO-31) | GI50 (Malme-3M)
CCN1C(=O)c2ccccc2C1(O)c1ccc(Cl)cc1 (configuration not stated) | 76.9 µM (inactive) | 59.8 µM (inactive) | > 100 µM (inactive) | > 100 µM (inactive) | 29.1 µM (inactive) | 51.4 µM (inactive) | 47.6 µM (inactive) | > 100 µM (inactive) | 16.5 µM (inactive) | 88.1 µM (inactive) | 79.8 µM (inactive) | > 100 µM (inactive) | 31.6 µM (inactive) | 24.4 µM (inactive) | 20.7 µM (inactive) | 41.2 µM (inactive) | 94.4 µM (inactive) | 75.5 µM (inactive) | 53.5 µM (inactive) | 
CCn1c(-c2ccc(OC)cc2)nc2c1C(=O)c1ccccc1C2=O | > 100 µM (inactive) | > 100 µM (inactive) | > 100 µM (inactive) | > 100 µM (inactive) | > 100 µM (inactive) |  | > 100 µM (inactive) | > 100 µM (inactive) | > 100 µM (inactive) | > 100 µM (inactive) | > 100 µM (inactive) | > 100 µM (inactive) | > 100 µM (inactive) | > 100 µM (inactive) | > 100 µM (inactive) | > 100 µM (inactive) | > 100 µM (inactive) | > 100 µM (inactive) |  | > 100 µM (inactive)
C[C@]1(O)O[C@@H]2OCC[C@@H]2C2=C1C(=O)c1ccccc1C2=O | 14.4 µM (inactive) | 15.4 µM (inactive) | 17.3 µM (inactive) | 30.3 µM (inactive) | 14.2 µM (inactive) | 11.4 µM (inactive) | 6.46 µM (inactive) | 21.2 µM (inactive) | 19.7 µM (inactive) | 17.3 µM (inactive) | 12.8 µM (inactive) | 17.3 µM (inactive) | 12.4 µM (inactive) | 21.9 µM (inactive) | 18 µM (inactive) | 10.7 µM (inactive) | 20.4 µM (inactive) | 17.1 µM (inactive) | 17.9 µM (inactive) | 15.9 µM (inactive)
C=C(Cl)C(Cl)(CBr)CCCC(C)(C)Cl (configuration not stated) | 5.04 µM (inactive) | > 33.7 µM (inactive) | 15.9 µM (inactive) | 2.98 µM (inactive) | 33.3 µM (inactive) | 11.9 µM (inactive) | 7.1 µM (inactive) | > 38.6 µM (inactive) | 30.4 µM (inactive) | 18.4 µM (inactive) | 12.7 µM (inactive) | 2.47 µM (inactive) | 29.9 µM (inactive) | > 100 µM (inactive) | 14.7 µM (inactive) | > 53 µM (inactive) | 2.26 µM (inactive) | 3.15 µM (inactive) | 14.5 µM (inactive) | 18 µM (inactive)
C=C1C(=O)O[C@H]2C1C[C@@H](O)[C@@]1(C)OC1CC[C@@]1(C)O[C@H]21 (some centres not stated) | 22.1 µM (inactive) | 5.15 µM (inactive) | 15.2 µM (inactive) | 28.6 µM (inactive) | > 10 µM (inactive) | 13.2 µM (inactive) | 14.8 µM (inactive) | 19.1 µM (inactive) | 20.7 µM (inactive) | 28.7 µM (inactive) | 48.1 µM (inactive) |  | 16.1 µM (inactive) | > 100 µM (inactive) | > 100 µM (inactive) | 14.1 µM (inactive) | 17.8 µM (inactive) | 19.5 µM (inactive) | 17 µM (inactive) | 11.7 µM (inactive)
CCN(CC)CCN1CCN=c2c3cc(OC)ccc3n3cnc4ccc1c2c43 | 0.272 µM (active) | 0.218 µM (active) | 0.585 µM (active) | 1.63 µM (inactive) | 0.357 µM (active) | 0.311 µM (active) | 0.171 µM (active) | 0.483 µM (active) | 0.475 µM (active) | 0.736 µM (active) | 0.466 µM (active) | 0.323 µM (active) | 1.4 µM (inactive) | 1.6 µM (inactive) | 0.481 µM (active) | 0.174 µM (active) | 1.07 µM (active) | 1.29 µM (inactive) | 1.41 µM (inactive) | 1.22 µM (inactive)
Cc1nc2c(nc1C)-c1c(c3c(n1C)C(=O)CCC3)C(=O)C2=O | 1.39 µM (inactive) | 0.219 µM (active) | 1.61 µM (inactive) | 1.42 µM (inactive) | 0.337 µM (active) | 0.186 µM (active) | 0.163 µM (active) | 0.264 µM (active) | 0.547 µM (active) | 0.953 µM (active) | 0.295 µM (active) | 1.22 µM (inactive) | 0.406 µM (active) | 1.27 µM (inactive) | 0.873 µM (active) | 0.175 µM (active) | 2.22 µM (inactive) | 1.4 µM (inactive) | 0.456 µM (active) | 0.297 µM (active)
O=C(/C=C/c1ccc(O)c(O)c1)NC(COC(=O)/C=C/c1ccc(O)c(O)c1)C(=O)O (configuration not stated) | > 100 µM (inactive) | 37.8 µM (inactive) | > 100 µM (inactive) | > 100 µM (inactive) | > 100 µM (inactive) | > 100 µM (inactive) | > 100 µM (inactive) | > 100 µM (inactive) | > 100 µM (inactive) | > 100 µM (inactive) | > 100 µM (inactive) | > 100 µM (inactive) | > 100 µM (inactive) | > 100 µM (inactive) | > 100 µM (inactive) | > 100 µM (inactive) | > 100 µM (inactive) | > 100 µM (inactive) | > 100 µM (inactive) | > 100 µM (inactive)
COCCOCCOC1=CC(=O)c2c(O)ccc(O)c2C1=O | 1.8 µM (inactive) | 1.41 µM (inactive) | 1.82 µM (inactive) | 2.47 µM (inactive) | 1.82 µM (inactive) | 1.52 µM (inactive) | 0.555 µM (active) | 1.49 µM (inactive) | 1.96 µM (inactive) |  | 2.59 µM (inactive) | 2.07 µM (inactive) | 0.173 µM (active) | > 10 µM (inactive) | 1.75 µM (inactive) | 1.19 µM (inactive) | 2.93 µM (inactive) | 0.397 µM (active) | 1.62 µM (inactive) | 0.149 µM (active)
CC1(C)CC2C=C(C=O)C3(C=O)CC3(C)C2C1 (configuration not stated) | 1.52 µM (inactive) | 0.0468 µM (active) | 5.5 µM (inactive) | 2.24 µM (inactive) | 2.15 µM (inactive) | 1.34 µM (inactive) | 1.34 µM (inactive) | 1.91 µM (inactive) | 1.76 µM (inactive) | 1.79 µM (inactive) | 3.88 µM (inactive) | 1.95 µM (inactive) | 1.64 µM (inactive) | 3.43 µM (inactive) | 11.8 µM (inactive) | 0.218 µM (active) | 2.39 µM (inactive) | 2.38 µM (inactive) | 1.69 µM (inactive) | 
COc1cc(NCc2ccc3n2-c2ccccc2OC3)cc(OC)c1OC | 47.1 µM (inactive) | 12.6 µM (inactive) | 16.1 µM (inactive) | 35.4 µM (inactive) | 14 µM (inactive) | 10.4 µM (inactive) | 14.1 µM (inactive) | 14.4 µM (inactive) | 4.25 µM (inactive) | 46.5 µM (inactive) | 46.5 µM (inactive) |  | 15.6 µM (inactive) |  | 69 µM (inactive) | 11.8 µM (inactive) | 32.5 µM (inactive) | 20.1 µM (inactive) | 16.8 µM (inactive) | 15.1 µM (inactive)
CC(NC(=N)N)C(=O)O (configuration not stated) | > 100 µM (inactive) | > 100 µM (inactive) | > 100 µM (inactive) | > 100 µM (inactive) | > 100 µM (inactive) | > 100 µM (inactive) | > 100 µM (inactive) | > 100 µM (inactive) | > 100 µM (inactive) | > 100 µM (inactive) | > 100 µM (inactive) |  | > 100 µM (inactive) | > 100 µM (inactive) | > 100 µM (inactive) | > 100 µM (inactive) | > 100 µM (inactive) | > 100 µM (inactive) | > 100 µM (inactive) | > 100 µM (inactive)
c1ccc2c(c1)nc1n2sc2nc3ccccc3n21 | > 100 µM (inactive) | > 100 µM (inactive) | > 100 µM (inactive) | > 100 µM (inactive) | > 100 µM (inactive) | > 100 µM (inactive) | 35.6 µM (inactive) | > 100 µM (inactive) | > 100 µM (inactive) | > 100 µM (inactive) | > 100 µM (inactive) | > 100 µM (inactive) | > 100 µM (inactive) | > 100 µM (inactive) |  | > 100 µM (inactive) | > 100 µM (inactive) | > 100 µM (inactive) | > 100 µM (inactive) | 
CCOC(=O)c1sc(N/N=C2\NC(=O)/C(=C/c3ccc([N+](=O)[O-])cc3)S2)nc1C | 16.7 µM (inactive) | 15.1 µM (inactive) | 27.4 µM (inactive) | 33.9 µM (inactive) | 14 µM (inactive) | 19.8 µM (inactive) | 22.3 µM (inactive) | 19.5 µM (inactive) | 23.9 µM (inactive) | 22.6 µM (inactive) | 27.5 µM (inactive) | 18.7 µM (inactive) | 16.8 µM (inactive) | 31.4 µM (inactive) | 32.6 µM (inactive) | 6.65 µM (inactive) | 35.3 µM (inactive) | 15.6 µM (inactive) | 16.2 µM (inactive) | 
Cc1nc2ccc(C(F)(F)F)cc2nc1NCc1ccc(Cl)c(Cl)c1 | 16.6 µM (inactive) | 15.5 µM (inactive) | 10.5 µM (inactive) | 23.6 µM (inactive) | 16.6 µM (inactive) | 15.3 µM (inactive) | 10 µM (inactive) | 15.8 µM (inactive) | 19.9 µM (inactive) | 13.1 µM (inactive) | 16 µM (inactive) | 17.5 µM (inactive) | 19.6 µM (inactive) |  | 18.4 µM (inactive) | 14.8 µM (inactive) | < 0.01 µM (active) | 15.9 µM (inactive) | 15.9 µM (inactive) | 17.2 µM (inactive)
